# Reference: patent publication US8013153B2, “Substituted pyrimidine kinase inhibitors” (Janssen Pharmaceutica, N.V., priority 2006, dated 2011)
# Values joined by “and” are separate entries in the source; they are usually repeats but may differ in a detail not shown here. Equal values may be shown once. “Also recorded” adds a separate entry of the source.
# What was measured:
# [1] = system: VEGF-induced angiogenesis; test: Mouse Corneal Micropocket Assay; format: in vivo, C57BL/6J mice
# From the text: This method has been described in detail (see Kenyon B, Voest E E, Chen C C, Flynn E, Folkman J and D'Amato R J, A model of angiogenesis in the mouse cornea, Invest. Opthalmol. Vis. Sci., 1996, 37:1625-1632; and, LaMontagne K, Littlewood-E A, Schnell C, O'Reilly T, Wyder L, Sanchez T, Probst B, Butler J, Wood A, Liau G, Billy E, Theuer A, Hla T and Wood J, Antagonism of sphingosine-1-phosphate receptors by FTY720 inhibits angiogenesis and tumor vascularization, Cancer Res., 2006, 66:221-31) and is an in vivo functional assay that provides an important link between biochemical and cellular inhibition (i.e., VEGFR-2 autophosphorylation and VEGF-dependent migration) and functional biological end points (i.e., VEGF-induced angiogenesis in vivo).
# Pellets containing the slow-release polymer Hydron® and sucralfate with 180 ng rHuVEGF165 were implanted into the cornea of female C57BL/6J mice. Daily oral treatment with either Compound 50 (10 mg/kg or 100 mg/kg) or vehicle (0.5% methylcellulose) was started 24 hours later. […] After sacrifice on day 6, the vascular response was quantified using a linear reticule through the slit lamp. Inhibition was determined by the formula: Inhibition=[(0.2)(π)(new blood vessel length)(clock hours of neovessels)]
# The circumferential zone was measured as clock hours with a 360° reticule (where 30° of arc equals 1 clock hour). […]
# [2] = target: B-Raf (Homo sapiens, UniProt P15056); test: RAF Kinase Screening Assay (B-Raf); details: Compound 50 tested at 30 μM
# Sequence of B-Raf (P15056 whole entry, species assumed): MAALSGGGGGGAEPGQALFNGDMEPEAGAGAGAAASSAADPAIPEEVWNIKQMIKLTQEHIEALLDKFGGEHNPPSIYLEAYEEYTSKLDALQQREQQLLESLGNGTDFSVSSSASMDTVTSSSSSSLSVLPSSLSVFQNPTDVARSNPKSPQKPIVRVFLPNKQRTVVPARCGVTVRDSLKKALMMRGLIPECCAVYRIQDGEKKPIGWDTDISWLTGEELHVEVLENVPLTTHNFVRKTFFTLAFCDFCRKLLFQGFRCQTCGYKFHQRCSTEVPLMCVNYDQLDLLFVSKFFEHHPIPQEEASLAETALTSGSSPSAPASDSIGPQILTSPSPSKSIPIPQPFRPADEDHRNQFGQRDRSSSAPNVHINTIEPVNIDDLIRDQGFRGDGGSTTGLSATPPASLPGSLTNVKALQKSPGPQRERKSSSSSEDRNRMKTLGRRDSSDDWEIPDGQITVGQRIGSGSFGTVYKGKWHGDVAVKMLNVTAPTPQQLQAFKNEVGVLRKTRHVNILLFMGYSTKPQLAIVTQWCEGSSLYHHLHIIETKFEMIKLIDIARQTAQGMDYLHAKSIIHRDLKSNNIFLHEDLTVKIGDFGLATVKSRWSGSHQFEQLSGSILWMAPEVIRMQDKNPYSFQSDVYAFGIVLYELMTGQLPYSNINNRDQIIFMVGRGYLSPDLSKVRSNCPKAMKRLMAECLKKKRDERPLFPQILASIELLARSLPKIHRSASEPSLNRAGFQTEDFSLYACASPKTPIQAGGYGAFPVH
# [3] = system: spontaneous intestinal adenoma formation; test: C57BL/6J-APC Min-mouse model of human adenomatous polyposis coli; format: in vivo, C57BL/6J-Apc min mice; details: 100 mg/kg orally once-daily; vehicle 47±7, baseline 23±4
# Experimental: The ability of Compound 50 to inhibit angiogenesis and tumor growth was tested in a spontaneous tumor model. the pre-cancerous polyp formation in the mouse model of human intestinal tumorigenesis.
# Transgenic C57BL/6J-Apc min mice heterozygous for a dominant nonsense Apc mutation are highly susceptible to spontaneous intestinal adenoma formation (homozygous mice are not viable). One hundred percent of these animals will develop polyps by 12 weeks of age. This model is widely used for studying prevention of intestinal adenoma formation and is well described in the literature (Yang K, Edelmann W, Fan K, et. al. A mouse model of human familial adenomatous polyposis. J Exp Zool. 1997 15; 277(3):245-54).
# Female C57BL/6J-Apc^Min mice (Jackson Laboratory, MN), 5 weeks of age, were housed (up to 10 mice per group) for a minimum of one week. Animals were then sorted into treatment groups based on body weight such that the mean body weight for the animals in each group was approximately the same. Small cohorts of animals (n=6) were sacrificed at day 1, before treatment to get a baseline number of polyps (mean polyp number at beginning of study). […]
# Animals in the treated group (n=10) were dosed daily with Compound 50 at 100 mg/kg orally q.d. for one week. […] The intestine of each mouse was excised, perfused, stained (0.01% Trypan Blue) and polyps were counted under 10× magnification.
# [4] = system: Human Umbilical Vein Endothelial Cells (HUVEC); test: VEGF Mediated Cell Migration Assay; format: cell-based; details: VEGF 10 ng/mL, VEGF control = 100%
# [5] = target: T1, murine Aurora-A (Mus musculus, UniProt P97477); test: Aurora-A Screening Assay; format: biochemical
# T1 construct: replaced with the full length protein encoding the murine Aurora-A; made in house; host or cells: sf9 insect cells
# T1 sequence (P97477 1-395): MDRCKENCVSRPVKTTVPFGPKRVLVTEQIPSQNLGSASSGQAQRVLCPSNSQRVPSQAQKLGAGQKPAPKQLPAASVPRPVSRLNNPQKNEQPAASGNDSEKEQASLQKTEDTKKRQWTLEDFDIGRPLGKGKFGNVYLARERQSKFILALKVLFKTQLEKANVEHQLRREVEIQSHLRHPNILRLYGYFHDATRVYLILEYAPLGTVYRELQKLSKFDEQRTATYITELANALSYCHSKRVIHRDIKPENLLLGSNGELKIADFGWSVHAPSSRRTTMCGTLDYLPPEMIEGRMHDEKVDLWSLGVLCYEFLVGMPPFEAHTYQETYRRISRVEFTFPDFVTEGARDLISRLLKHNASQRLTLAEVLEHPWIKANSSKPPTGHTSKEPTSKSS
# [6] = target: T2, HER2 cytoplasmic domain (Homo sapiens, UniProt P04626); test: HER2 Kinase Screening Assay; format: biochemical; details: > means no observed 50% inhibition at the indicated test concentration; ~ means approximately 50% inhibition at that concentration
# T2 construct: polyhistidine (N)
# T2 sequence (P04626 676-1255 limits assumed): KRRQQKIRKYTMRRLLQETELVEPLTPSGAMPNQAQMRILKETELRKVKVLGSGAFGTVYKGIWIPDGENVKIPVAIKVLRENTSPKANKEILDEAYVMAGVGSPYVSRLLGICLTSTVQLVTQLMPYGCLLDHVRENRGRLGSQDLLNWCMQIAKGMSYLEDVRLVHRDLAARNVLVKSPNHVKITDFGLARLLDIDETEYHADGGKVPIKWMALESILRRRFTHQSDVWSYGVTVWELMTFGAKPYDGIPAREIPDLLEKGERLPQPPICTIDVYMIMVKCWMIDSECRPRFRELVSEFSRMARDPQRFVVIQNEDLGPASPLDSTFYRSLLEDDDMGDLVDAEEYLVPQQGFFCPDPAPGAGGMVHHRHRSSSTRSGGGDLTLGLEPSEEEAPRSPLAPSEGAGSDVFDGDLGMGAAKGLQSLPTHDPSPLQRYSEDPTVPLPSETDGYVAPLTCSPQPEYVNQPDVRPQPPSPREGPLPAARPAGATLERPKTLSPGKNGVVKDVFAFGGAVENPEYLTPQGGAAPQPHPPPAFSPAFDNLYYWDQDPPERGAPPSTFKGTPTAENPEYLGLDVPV
smiles,measurement,setting,value
"CCNC(=O)Nc1ccc(Oc2ncnc(N)c2/C=N/OC)cc1Cl [Cpd 50, 1-{4-[6-amino-5-(methoxyimino-methyl)-pyrimidin-4-yloxy]-2-chloro-phenyl}-3-ethyl-urea]",% Inhibition of blood vessel growth compared to the vehicle group,[1]; 10 mg/Kg daily oral,15% and 15 ± 2%
same,% Inhibition of blood vessel growth compared to the vehicle group,[1]; 100 mg/Kg daily oral,83% and 83 ± 6%
same,activity against B-Raf,[2],no activity; also recorded: not active
same,polyp counts,[3],27±7
same,% Stimulation of cell migration,[4]; 50 nM,82%
same,% Stimulation of cell migration,[4]; 100 nM,60%
same,% Stimulation of cell migration,[4]; 500 nM,59%
same,% Stimulation of cell migration,[4]; 1 μM,34.5%
same,IC50,[5],> 100 µM
same,IC50,[6],> 100 µM
